From article PMC12091851, “Replacing a Cereblon Ligand by a DDB1 and CUL4 Associated Factor 11 (DCAF11) Recruiter Converts a Selective Histone Deacetylase 6 PROTAC into a Pan‐Degrader” (Chemmedchem, 2025)

Key:
HDAC = settings: cited from earlier work
[1] = Aqueous stability assay in DPBS buffer (HPLC); format: physicochemical; settings: DPBS pH 7.4, 10% DMSO, room temperature, 72 hours
Procedure: and A6. Compounds were diluted in DPBS buffer (pH = 7.4; final DMSO concentration: 10%) and the remaining compound content was analyzed by HPLC. The peak area at 0 h was used for normalization.
Mean ± standard deviation of n = 2 replicates.
Figure S4. Analysis of time dependent degradation by 1j of HDAC1 (A) and HDAC6 (B) by Simple Western™ immunoassay analysis of MM.1S cell lysates. MM.1S cells were treated with 1j (10 µM) or vehicle (DMSO) for the indicated time period. Quantification of protein levels presented as mean ± standard deviation of n = 3 biological replicates. Si gnificance compared to vehicle: * = p≤0.05 , […]
2.5. Aqueous Stability Assay
For stability testing in aqueous solution, a 10-fold concentrated DMSO solution of the respective compounds was diluted in DPBS to generate a 10 µM concentration (final DMSO content of 10%).
Samples of the aqueous solutions were taken after 0, 24, 48, and 72 h at room temperature and the amounts of the parental compound and potential fragments were monitored by HPLC gradient A (see 3.1 General Information). The peak area of the 0 h sample was used for normalization. All compounds were tested in duplicates and GraphPad Prim was used for evaluation and data visualization.
The cell lysis was performed as descripted in 3.2. Simple Western Immunoassay. […]
Afterwards, proteins were transferred with the Trans -Blot Turbo Transfer System (Catalog# 1704150, Bio-Rad) to Immobilon-FL PVDF membranes (Catalog# IPFL00005, Mill ipore Merck, Burlington, MA, USA) at 1.0 A for 30 min and treated with 5% milk-powder solution for 1 h at room temperature under slight agitation. […] The ChemiDoc XRS+ System (Catalog# 1708265 , Bio-Rad) was used for detection and Image Lab Software 6.1 (Bio-Rad) for quantification. […]
In vitro inhibitory activities against HDAC1, 2 , and 6 were measured using a previously published protocol.[3] In vitro inhibitory activities against HDAC4 were measured using a previously published protocol with slight modifications. […]

MM.1S cells = assay: Cell cycle analysis by PI staining and flow cytometry; format: cell-based, human; settings: 10 μM, 48 h
Procedure: GraphPad Prism (GraphPad Software). […]
Biotech), resuspended in 1 mL EtOH/D PBS (7/3 v/v), and fixed for 30 min at 4 °C. The samples were rehydrated with DPBS and treated with 5 µg /mL RNAse ( Catalog# EN0531 , ThermoFisher Scientific Inc.) for 15 min at room temperature. The staining was performed with 3 µM propidium iodide (in DPBS) for 15 min at room temperature and analyzed by flow cytometry ( Guava easyCyteTM, Luminex, […]
Lakes, NJ, USA), using the Watson Pragmatic algorithm.[6] GraphPad Prism (GraphPad Software) was used for normalization, statistical analysis, and bar graph creation. Significance testing was performed with a one-way analysis of variance (ANOVA). Dunnett’s post-hoc test was employed to obtain […]
Final DMSO concentration was 0.1%.
Staining was performed with
Fluorescence was measured by flow cytometry (Guava® easyCyteTM, Luminex, Austin, Texas). GraphPad Prism (GraphPad Software) was used for normalization, statistical analysis, and bar graph creation. Significance testing was performed with a one-way analysis of variance (ANOVA).
Subsequently, cells were harvested and […]
After 30 minutes of incubation at […]
Dunnett’s post-hoc test was employed

MDA-MB-231 cells = assay: Clonogenic growth assay; format: cell-based, human; settings: 10 μM for 48 h, nine days of growth
Procedure: Figure 9 Clonogenic growth assay of DCAF11‐recruiting PROTACs. MDA‐MB‐231 cells were treated with 10 μM of the respective compound or vehicle (DMSO) for 48 hours. (A) Representative images of crystal violet stained colonies after nine days of growth. (B) Quantification of counted colonies, presented as mean ± standard deviation of three biological replicates, each performed in triplicates. Significance of quantification compared to vehicle: ns=p≥0.05; **=p≤0.01 and ***=p≤0.001. […]
Subsequently, cells were harvested and
plated in 6-well plates at a density of 750 cells per well in triplicates. The cell culture medium was
changed after five days. Nine days after plating, the colonies were carefully washed with 500 µL DPBS
and stained with 500 µL crystal violet solution (0.5% in methanol). After 30 minutes of incubation at
room temperature, the wells were gently rinsed with deionized water. After counting the formed
colonies, GraphPad Prism (GraphPad Software) was used for bar graph creation. Significance testing
was performed with a one-way analysis of variance (ANOVA). Dunnett’s post-hoc test was employed
to obtain significance levels of each mean compared to a reference mean value.

Row | Structure (SMILES) | degraded HDAC isoforms (HDAC) | decomposition / reduction in content in DPBS buffer [1] | effect on cell cycle phases (MM.1S cells) | reduction of colonies (clonogenic growth) (MDA-MB-231 cells)
1 | O=C(CCCCCCC(=O)N/N=C/c1ccc(OCCOCCOCCn2cc(CNc3cccc4c3C(=O)N(C3CCC(=O)NC3=O)C4=O)nn2)cc1)NO (centres unmarked) [I] | only HDAC6 was degraded | – | – | –
2 | Cc1ncsc1-c1ccc([C@@H](C)NC(=O)[C@H]2C[C@H](O)CN2C(=O)[C@H](NC(=O)CCOCCOCCN(CCc2c[nH]c3ccccc23)Cc2ccc(/C=C/C(=O)NO)cc2)C(C)(C)C)cc1 [V] | degraded HDAC3 and 8 | – | – | –
3 | O=C(CCCCCCC(=O)Nc1ccccc1)NO [Vorinostat, vorinostat, reference compound] | – | remained intact | stronger effects on the different phases of the cell cycle | less pronounced and not significant
